Test results reported in US11702422B2, “Imidazopyridazines as modulators of IL-17” (Janssen Pharmaceutica NV, priority 2020, dated 2023).

What was measured:
[1] = biological target: IL-17A(FLAG-Tagged): IL-17RA(His-Tagged) (Homo sapiens, UniProt Q16552, K93Q); test: IL-17A(FLAG-Tagged): IL-17RA(His-Tagged) Binding Disruption Eu-HTRF Assay; settings: IL-17A/IL-17RA binding disruption, simple average if tested more than once
Method in brief: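 IC50 comes from a one-site competition fit of the HTRF 665/620 nm ratio. Compound dilutions (2-fold, 22 points) were held 1 h rt with FLAG-tagged IL-17A dimer, then His-tagged IL-17RA plus Eu-cryptate anti-FLAG and D2 anti-His antibodies were added for 2 h rt.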

[2] = system: IL-17A-induced G-CSF production in human normal keratinocyte (NHK); test: NHK Assay: IL-17A-induced G-CSF production in human normal keratinocytes; type: cell-based; settings: 24 h, adult normal human keratinocytes, IL-17A 5 ng/mL, simple average if tested more than once
Method in brief: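 HTRF read-out of supernatant G-CSF, quantified from a standard curve, gave IC50 values. Adult keratinocytes, 3000-4000 cells/well, received human IL-17A (5 ng/mL final) pre-mixed 1 h at rt with compound, in 5% FBS and 0.2% DMSO, 24 h at 37° C.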

UniProt Q16552, sequence (Q16552 with tags, fused parts or gaps K93Q): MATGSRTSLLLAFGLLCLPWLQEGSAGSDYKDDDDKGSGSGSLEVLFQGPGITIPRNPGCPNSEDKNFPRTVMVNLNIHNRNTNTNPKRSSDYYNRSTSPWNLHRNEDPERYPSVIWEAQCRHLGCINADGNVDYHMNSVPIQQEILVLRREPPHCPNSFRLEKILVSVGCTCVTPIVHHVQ

Compound | IC50 [1] [nM] | IC50 ([2]; Homo sapiens, Keratinocyte) [nM] | IC50 [2] [nM]
O=C(CCC(F)(F)F)N[C@@H](c1cnn2cc([C@@H](NC(=O)c3cccc(OCC(F)(F)F)n3)C3CCC(F)(F)CC3)nc2c1)C1CC1 [Example 203, N—((S)-(7-((R)-Cyclopropyl(4,4,4-trifluorobutanamido)methyl)imidazo[1,2-b]pyridazin-2-yl)(4,4-difluorocyclohexyl)methyl)-6-(2,2,2-trifluoroethoxy)picolinamide] | 190 | 2700 | –
Cc1nccnc1C(=O)N[C@H](c1cn2ncc([C@H](NC(=O)CCC(F)(F)F)C3CC3)cc2n1)C1CCC(F)(F)CC1 [Example 219, N—((S)-(7-((R)-Cyclopropyl(4,4,4-trifluorobutanamido)methyl)imidazo[1,2-b]pyridazin-2-yl)(4,4-difluorocyclohexyl)methyl)-3-methylpyrazine-2-carboxamide] | 2100 | > 20000 | –
CC(C)Oc1cccc(C(=O)N[C@H](c2cn3ncc([C@H](NC(=O)CCC(F)(F)F)C4CC4)cc3n2)C2CCC(F)(F)CC2)n1 [Example 227, N—((S)-(7-((R)-Cyclopropyl(4,4,4-trifluorobutanamido)methyl)imidazo[1,2-b]pyridazin-2-yl)(4,4-difluorocyclohexyl)methyl)-6-isopropoxypicolinamide] | 900 | 20000 | –
N#CC1(C(NC(=O)CC2CC(F)(F)C2)c2cnn3cc([C@@H](NC(=O)c4nonc4OCC(F)F)C4CCC(F)(F)CC4)nc3c2)CC1 (single isomer, unassigned) [Example 425, N—((S)-(7-((S*)-(1-Cyanocyclopropyl)(2-(3,3-difluorocyclobutyl)acetamido)methyl)imidazo[1,2-b]pyridazin-2-yl)(4,4-difluorocyclohexyl)methyl)-4-(2,2-difluoroethoxy)-1,2,5-oxadiazole-3-carboxamide] | 99 | – | 20
Cc1noc(C)c1C(=O)N[C@H](c1cn2ncc([C@H](NC(=O)CCC(F)(F)F)C3CC3)cc2n1)C1CCC(F)(F)CC1 [Example 80, N—((S)-(7-((R)-Cyclopropyl(4,4,4-trifluorobutanamido)methyl)imidazo[1,2-b]pyridazin-2-yl)(4,4-difluorocyclohexyl)methyl)-3,5-dimethylisoxazole-4-carboxamide] | 17000 | > 20000 | –
CC(C)n1nccc1C(=O)N[C@H](c1cn2ncc(C(NC(=O)CC3CC(F)(F)C3)C(C)(C)O)cc2n1)C1CCC(F)(F)CC1 (single isomer, unassigned) [Example 444, N—((S)-(7-((R*)-1-(2-(3,3-Difluorocyclobutyl)acetamido)-2-hydroxy-2-methylpropyl)imidazo[1,2-b]pyridazin-2-yl)(4,4-difluorocyclohexyl)methyl)-1-isopropyl-1H-pyrazole-5-carboxamide] | 2300 | – | 11000
O=C(CCC(F)(F)F)N[C@@H](c1cnn2cc([C@@H](NC(=O)c3ccnn3C(F)(F)F)C3CCC(F)(F)CC3)nc2c1)C1CC1 [Example 104, N—((S)-(7-((R)-Cyclopropyl(4,4,4-trifluorobutanamido)methyl)imidazo[1,2-b]pyridazin-2-yl)(4,4-difluorocyclohexyl)methyl)-1-(trifluoromethyl)-1H-pyrazole-5-carboxamide] | 90 | 550 | –
O=C(CCC(F)(F)F)N[C@@H](c1cnn2cc([C@@H](NC(=O)C3CC34CC4)C3CCC(F)(F)CC3)nc2c1)C1CC1 (stereo partly drawn) [Example 44, N—((S)-(7-((R)-Cyclopropyl(4,4,4-trifluorobutanamido)methyl)imidazo[1,2-b]pyridazin-2-yl)(4,4-difluorocyclohexyl)methyl)spiro[2.2]pentane-1-carboxamide] | 740 | 1400 | –
O=C(CC1CC(F)(F)C1)NC(c1cnn2cc([C@@H](NC(=O)c3cnnn3CCC(F)(F)F)C3CCC(F)(F)CC3)nc2c1)C1CC1 (single isomer, unassigned) [Example 73, N—((S)-(7-((R*)-Cyclopropyl(2-(3,3-difluorocyclobutyl)acetamido)methyl)imidazo[1,2-b]pyridazin-2-yl)(4,4-difluorocyclohexyl)methyl)-1-(3,3,3-trifluoropropyl)-1H-1,2,3-triazole-5-carboxamide] | 1900 | – | ~15000
O=C(CCC(F)(F)F)N[C@@H](c1cnn2cc([C@@H](NC(=O)c3ncnn3C3CC3)C3CCC(F)(F)CC3)nc2c1)C1CC1 [Example 103, 1-Cyclopropyl-N—((S)-(7-((R)-cyclopropyl(4,4,4-trifluorobutanamido)methyl)imidazo[1,2-b]pyridazin-2-yl)(4,4-difluorocyclohexyl)methyl)-1H-1,2,4-triazole-5-carboxamide] | 110 | 370 | –

The next lines start with results.

IC50 [1] [nM] | Compound | IC50 ([2]; Homo sapiens, Keratinocyte) [nM] | IC50 [2] [nM]
39 | Cc1nonc1C(=O)N[C@H](c1cn2ncc(C(NC(=O)CCC(F)(F)F)C3CCC3)cc2n1)C1CCC(F)(F)CC1 (single isomer, unassigned) [Example 491, N—((S)-(7-((R*)-Cyclobutyl(4,4,4-trifluorobutanamido)methyl)imidazo[1,2-b]pyridazin-2-yl)(4,4-difluorocyclohexyl)methyl)-4-methyl-1,2,5-oxadiazole-3-carboxamide] | 85 | –
380 | COCC(NC(=O)CC1CC(F)(F)C1)c1cnn2cc([C@@H](NC(=O)c3nonc3C3CC3)C3CCC(F)(F)CC3)nc2c1 (single isomer, unassigned) [Example 524, 4-Cyclopropyl-N—((S)-(7-((S*)-1-(2-(3,3-difluorocyclobutyl)acetamido)-2-methoxyethyl)imidazo[1,2-b]pyridazin-2-yl)(4,4-difluorocyclohexyl)methyl)-1,2,5-oxadiazole-3-carboxamide] | – | 3700
58 | Cc1nsnc1C(=O)N[C@H](c1cn2ncc(C(NC(=O)CCC(F)(F)F)C3CC3)cc2n1)C1CCC(F)(F)CC1 (single isomer, unassigned) [Example 467, N—((S)-(7-((R*)-Cyclopropyl(4,4,4-trifluorobutanamido)methyl)imidazo[1,2-b]pyridazin-2-yl)(4,4-difluorocyclohexyl)methyl)-4-methyl-1,2,5-thiadiazole-3-carboxamide] | 360 | –
100 | [2H]C([2H])([2H])n1nccc1C(=O)N[C@H](c1cn2ncc([C@H](NC(=O)C[C@H](C)C(F)(F)F)C3CCC3)cc2n1)C1CCC(F)(F)CC1 (relative stereo) [Example 503, N—((S)-(7-((R*)-Cyclobutyl((S*)-4,4,4-trifluoro-3-methylbutanamido)methyl)imidazo[1,2-]pyridazin-2-yl)(4,4-difluorocyclohexyl)methyl)-1-(methyl-d3)-1H-pyrazole-5-carboxamide] | 130 | –
190 | CC(C(F)F)n1ncnc1C(=O)N[C@H](c1cn2ncc([C@H](NC(=O)CCC(F)(F)F)C3CC3)cc2n1)C1CCC(F)(F)CC1 (stereo partly drawn) [Example 479, N—((S)-(7-((R)-Cyclopropyl(4,4,4-trifluorobutanamido)methyl)imidazo[1,2-b]pyridazin-2-yl)(4,4-difluorocyclohexyl)methyl)-1-(1,1-difluoropropan-2-yl)-1H-1,2,4-triazole-5-carboxamide] | 430 | –
